Source: PubChem BioAssay AID1963433 (Molecular Pharmacology Branch, DTP, NCI, 2024)
pIC50: −log10 of the molar value.

Test system: 772245-204-R-J1-PDC complex spheroid growth
Assay: Anticancer human tumor 772245-204-R-J1-PDC patient-derived rhabdomyosarcoma cell line growth inhibition [Asc]
Conditions: for pIC50: curve of first compound; for viability, T/C: stronger effect = lower value
Procedure, shortened: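 Concentration series start at each agent's clinical Cmax, or at 10 microM when none is established, and drop in half-log steps; agents are applied alone or together to complex spheroids built with HUVEC and hMSC.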

[1] = second compound 0.1 µM, first compound 0.0316 µM
[2] = second compound 0.1 µM, first compound 0.1 µM
[3] = second compound 0.1 µM, first compound 0.316 µM
[4] = second compound 0.1 µM, first compound 1 µM
[5] = second compound 0.316 µM, first compound 0.0316 µM
[6] = second compound 0.316 µM, first compound 0.1 µM
[7] = second compound 0.316 µM, first compound 0.316 µM
[8] = second compound 0.316 µM, first compound 1 µM
[9] = second compound 1 µM, first compound 0.0316 µM
[10] = second compound 1 µM, first compound 0.1 µM
[11] = second compound 1 µM, first compound 0.316 µM
[12] = second compound 1 µM, first compound 1 µM
[13] = second compound 3.16 µM, first compound 0.0316 µM
[14] = second compound 3.16 µM, first compound 0.1 µM
[15] = second compound 3.16 µM, first compound 0.316 µM
[16] = second compound 3.16 µM, first compound 1 µM
[17] = second compound 10 µM, first compound 0.0316 µM
[18] = second compound 10 µM, first compound 0.1 µM
[19] = second compound 10 µM, first compound 0.316 µM
[20] = second compound 10 µM, first compound 1 µM
[21] = second compound 0.1 µM, first compound 0.00316 µM
[22] = second compound 0.1 µM, first compound 0.01 µM
[23] = second compound 0.316 µM, first compound 0.00316 µM
[24] = second compound 0.316 µM, first compound 0.01 µM
[25] = second compound 1 µM, first compound 0.00316 µM
[26] = second compound 1 µM, first compound 0.01 µM
[27] = second compound 3.16 µM, first compound 0.00316 µM
[28] = second compound 3.16 µM, first compound 0.01 µM
[29] = second compound 10 µM, first compound 0.00316 µM
[30] = second compound 10 µM, first compound 0.01 µM
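Also: compound exposure lasted seven days.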
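For viability, T/C in this document: 100% = DMSO vehicle control viability.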

Compound: C=CC(=O)N1CCN(c2nc(=O)n(-c3c(C)ccnc3C(C)C)c3nc(-c4c(O)cccc4F)c(F)cc23)C(C)C1 (stereo not given) + Cc1c(S(C)(=O)=O)c(-c2cc(F)cc(N3CCN(c4ccc(NS(=O)(=O)c5ccc(NC(CCN6CCC(C(=O)OCCCP(=O)(O)O)CC6)CSc6ccccc6)c(S(=O)(=O)C(F)(F)F)c5)cc4)CC3)c2)c(-c2ccc(Cl)cc2)n1C(C)C
- pIC50 (second compound 0.1 µM): 5.20
- pIC50 (second compound 0.316 µM): 5.61
- pIC50 (second compound 1 µM): > 7.50
- pIC50 (second compound 3.16 µM): 7.24
- pIC50 (second compound 10 µM): > 7.50
- viability, T/C [1]: 85%
- viability, T/C [2]: 79.7%
- viability, T/C [3]: 89.5%
- viability, T/C [4]: 67.7%
- viability, T/C (second compound 0.1 µM, first compound 3.16 µM): 69.5%
- viability, T/C (second compound 0.1 µM, first compound 10 µM): 38.9%
- viability, T/C [5]: 66.9%
- viability, T/C [6]: 69.2%
- viability, T/C [7]: 68.2%
- viability, T/C [8]: 59.9%
- viability, T/C (second compound 0.316 µM, first compound 3.16 µM): 47.1%
- viability, T/C (second compound 0.316 µM, first compound 10 µM): 11.8%
- viability, T/C [9]: 49.9%
- viability, T/C [10]: 43%
- viability, T/C [11]: 44.9%
- viability, T/C [12]: 29.3%
- viability, T/C (second compound 1 µM, first compound 3.16 µM): 15.1%
- viability, T/C (second compound 1 µM, first compound 10 µM): 15.1%
- viability, T/C [13]: 41.8%
- viability, T/C [14]: 62.3%
- viability, T/C [15]: 37.9%
- viability, T/C [16]: 26.5%
- viability, T/C (second compound 3.16 µM, first compound 3.16 µM): 15.8%
- viability, T/C (second compound 3.16 µM, first compound 10 µM): 5.71%
- viability, T/C [17]: 48.5%
- viability, T/C [18]: 41.3%
- viability, T/C [19]: 41.3%
- viability, T/C [20]: 30.6%
- viability, T/C (second compound 10 µM, first compound 3.16 µM): 13.5%
- viability, T/C (second compound 10 µM, first compound 10 µM): 6.87%

Compound: COc1c(OCCCN2CCOCC2)ccc2c3n(c(=NC(=O)c4cnc(N)nc4)nc12)CCN3 + Cc1c(S(C)(=O)=O)c(-c2cc(F)cc(N3CCN(c4ccc(NS(=O)(=O)c5ccc(NC(CCN6CCC(C(=O)OCCCP(=O)(O)O)CC6)CSc6ccccc6)c(S(=O)(=O)C(F)(F)F)c5)cc4)CC3)c2)c(-c2ccc(Cl)cc2)n1C(C)C
- pIC50 (second compound 0.1 µM): 7.24
- pIC50 (second compound 0.316 µM): 7.31
- pIC50 (second compound 1 µM): 7.67
- pIC50 (second compound 3.16 µM): > 8.50
- pIC50 (second compound 10 µM): > 8.50
- viability, T/C [21]: 82.5%
- viability, T/C [22]: 73.1%
- viability, T/C [1]: 55.7%
- viability, T/C [2]: 45.2%
- viability, T/C [3]: 27.1%
- viability, T/C [4]: 18.8%
- viability, T/C [23]: 64.2%
- viability, T/C [24]: 74.5%
- viability, T/C [5]: 55.4%
- viability, T/C [6]: 36.8%
- viability, T/C [7]: 18.4%
- viability, T/C [8]: 11.6%
- viability, T/C [25]: 65.4%
- viability, T/C [26]: 59.9%
- viability, T/C [9]: 44.8%
- viability, T/C [10]: 24.9%
- viability, T/C [11]: 12.7%
- viability, T/C [12]: 6.44%
- viability, T/C [27]: 43.6%
- viability, T/C [28]: 56.1%
- viability, T/C [13]: 29.4%
- viability, T/C [14]: 19.3%
- viability, T/C [15]: 11.5%
- viability, T/C [16]: 3.48%
- viability, T/C [29]: 49.3%
- viability, T/C [30]: 41.9%
- viability, T/C [17]: 39.1%
- viability, T/C [18]: 18.2%
- viability, T/C [19]: 6.81%
- viability, T/C [20]: 3.06%

Compound: NC1CCC(NC2CC2c2ccccc2)CC1 (stereo not given) + Cc1c(S(C)(=O)=O)c(-c2cc(F)cc(N3CCN(c4ccc(NS(=O)(=O)c5ccc(NC(CCN6CCC(C(=O)OCCCP(=O)(O)O)CC6)CSc6ccccc6)c(S(=O)(=O)C(F)(F)F)c5)cc4)CC3)c2)c(-c2ccc(Cl)cc2)n1C(C)C
- pIC50 (second compound 0.1 µM): < 7.00
- pIC50 (second compound 0.316 µM): > 9.50
- pIC50 (second compound 1 µM): > 9.50
- pIC50 (second compound 3.16 µM): > 9.50
- pIC50 (second compound 10 µM): > 9.50
- viability, T/C (second compound 0.1 µM, first compound 0.000316 µM): 69.1%
- viability, T/C (second compound 0.1 µM, first compound 0.001 µM): 67.9%
- viability, T/C [21]: 66%
- viability, T/C [22]: 59.6%
- viability, T/C [1]: 66.6%
- viability, T/C [2]: 61.2%
- viability, T/C (second compound 0.316 µM, first compound 0.000316 µM): 42.7%
- viability, T/C (second compound 0.316 µM, first compound 0.001 µM): 48.9%
- viability, T/C [23]: 41.6%
- viability, T/C [24]: 38.2%
- viability, T/C [5]: 38.1%
- viability, T/C [6]: 45.2%
- viability, T/C (second compound 1 µM, first compound 0.000316 µM): 34.1%
- viability, T/C (second compound 1 µM, first compound 0.001 µM): 24.2%
- viability, T/C [25]: 22.6%
- viability, T/C [26]: 24.2%
- viability, T/C [9]: 26.3%
- viability, T/C [10]: 24.8%
- viability, T/C (second compound 3.16 µM, first compound 0.000316 µM): 24.2%
- viability, T/C (second compound 3.16 µM, first compound 0.001 µM): 18.1%
- viability, T/C [27]: 17.8%
- viability, T/C [28]: 18.7%
- viability, T/C [13]: 13.7%
- viability, T/C [14]: 13.2%
- viability, T/C (second compound 10 µM, first compound 0.000316 µM): 20.4%
- viability, T/C (second compound 10 µM, first compound 0.001 µM): 18.1%
- viability, T/C [29]: 15.8%
- viability, T/C [30]: 18.4%
- viability, T/C [17]: 16.8%
- viability, T/C [18]: 13.2%
